Test results from ChEMBL document CHEMBL6087448, “Eradication of Therapy-Resistant Cancer Stem Cells by Novel Telmisartan Derivatives” (J Med Chem, 2025).
Converted amounts (≈) assume the structure as drawn. The source made the active and inactive calls. The calls are words filed in the database; no cut-off is given here.

Experiments:
MCF7 [1] = assay: Inhibition of STAT5 phosphorylation in human MCF7 cells at 10 uM incubated for 72 hrs by Western blotting based immunoassay; assay type: cell-based
A2780/Taxol [2] = assay: Inhibition of side population phenotype in human Paclitaxel-resistant A2780 cells expressing ABCB1 at 10 uM incubated for 90 mins by DCV staining based flow cytometric analysis; assay type: functional, cell-based
[3] = test system: Docetaxel-resistant DU145 cell; assay: Enhancement of docetaxel-induced anti-metabolic activity against human Docetaxel-resistant DU145 cell assessed as reduction in metabolic activity at 10 uM measured after 72 hrs by MTT assay; assay type: functional, cell-based
[4] = (§1) Inhibition of side population phenotype in human K562-r cells at 10 uM incubated for 90 mins by DCV staining based flow cytometric analysis relative to control; assay type: functional; conditions: K-562R
A549 [5] = assay: Inhibition of STAT5 phosphorylation in human A549 cells at 10 uM incubated for 72 hrs by Western blotting based immunoassay; assay type: cell-based
[6] = Toxicity in female NOD/SCID mouse xenografted with human K562-r cells assessed as body weight loss at 10 mg/kg, po administered once daily for 30 days; assay type: organism-based; conditions: in vivo, 720 h, time 30 day
K562-r [7] = assay: Inhibition of STAT5 phosphorylation in human K562-r cells at 4 uM measured after 72 hrs by Western blotting based immunoassay; assay type: cell-based
K562-r [8] = assay: Inhibition of STAT5 phosphorylation in human K562-r cells at 4 uM measured after 6 hrs in presence of imatinib by Western blotting based immunoassay; assay type: cell-based
[9] = test system: Paclitaxel-resistant IGROV-1 cell; assay: Inhibition of STAT5 phosphorylation in human Paclitaxel-resistant IGROV-1 cells expressing ABCB1 at 10 uM incubated for 72 hrs by Western blotting based immunoassay
K-562R [10] = assay: Antitumor activity against human K562-r cells xenografted in female NOD/SCID mouse model assessed as tumor growth inhibition at 10 mg/kg, po administered once daily for 30 days; assay type: functional, organism-based; conditions: time 30.0 day
A549 [11] = assay: Effect on STAT5 protein expression in human A549 cells at 10 uM incubated for 72 hrs by Western blotting based immunoassay; assay type: functional, cell-based
K-562R [12] = assay: Antitumor activity against human K562-r cells xenografted in female NOD/SCID mouse model assessed as reduction in tumor volume at 10 mg/kg, po co-administered with imatinib once daily and measured after 15 to 26 days; assay type: functional, organism-based; conditions: time 15-26 day
[13] = Toxicity in female NOD/SCID mouse xenografted with human K562-r cells assessed as body weight loss at 10 mg/kg, po co-administered with imatinib once daily for 30 days; assay type: organism-based; conditions: in vivo, 720 h, time 30 day
K-562R [14] = assay: Effect on ABCB1 protein expression in human K562-r cells at 4 uM incubated for 72 hrs by Western blotting based immunoassay; assay type: functional, cell-based
[15] = test system: Docetaxel-resistant PC-3 cell; assay: Enhancement of docetaxel-induced anti-metabolic activity against human Docetaxel-resistant PC-3 cell assessed as reduction in metabolic activity at 10 uM measured after 72 hrs by MTT assay; assay type: functional, cell-based
K-562R [16] = assay: Cytotoxicity against human K562-r cells assessed as reduction in metabolic activity at 10 uM incubated for 72 hrs by MTT assay; assay type: functional, cell-based
PBMC [17] = assay: Effect on colony formation in human PBMC derived from healthy donors at 10 uM measured after 2 weeks in presence of imatinib by inverted microscopic analysis; assay type: functional, cell-based
A2780/Taxol [18] = assay: Effect on STAT5 protein expression in human Paclitaxel-resistant A2780 cells expressing ABCB1 at 10 uM incubated for 72 hrs by Western blotting based immunoassay; assay type: functional, cell-based
A549 [19] = assay: Inhibition of side population phenotype in human A549 cells expressing ABCC1 at 10 uM incubated for 90 mins by DCV staining based flow cytometric analysis; assay type: functional, cell-based
K562-r [20] = assay: Effect on STAT5 phosphorylation in human K562-r cells at 4 uM measured after 6 hrs by Western blotting based immunoassay; assay type: cell-based
[21] = test system: Docetaxel-resistant PC-3 cell; assay: Inhibition of side population phenotype in human Docetaxel-resistant PC-3 cell expressing ABCB1 at 10 uM incubated for 90 mins by DCV staining based flow cytometric analysis; assay type: functional
A2780/Taxol [22] = assay: Sensitization of paclitaxel-induced cytotoxicity against human Paclitaxel-resistant A2780 cells assessed as reduction in metabolic activity at 10 uM measured after 72 hrs by MTT assay; assay type: functional, cell-based
MCF7 [23] = assay: Inhibition of side population phenotype in human MCF7 cells expressing ABCG2 at 10 uM incubated for 90 mins by DCV staining based flow cytometric analysis; assay type: functional, cell-based
PBMC [24] = assay: Effect on colony formation in human PBMC derived from healthy donors at 10 uM measured after 2 weeks by inverted microscopic analysis; assay type: functional, cell-based
K-562R [25] = assay: Restoration of imatinib accumulation in human K562-r cells at 10 uM preincubated with compound for 1 hrs followed by imatinib addition and measured after 2 hrs by UHPLC-SIM-MS analysis; assay type: functional, cell-based; conditions: time 3.0 hrs
COS-7 = assay: Cytotoxicity against African green monkey COS-7 cells assessed as reduction in metabolic activity at 10 uM incubated for 72 hrs by MTT assay; assay type: toxicity, cell-based; conditions: chlorocebus aethiops, cos-7, 72 h
PBMC [26] = assay: Inhibition of colony formation in human PBMC derived from TKI naive CML patients assessed as reduction in number of colonies at 1 uM incubated for 14 days in presence of imatinib by inverted microscopic analysis; assay type: functional, cell-based; conditions: time 14.0 day
K-562R [27] = assay: Antitumor activity against human K562-r cells xenografted in female NOD/SCID mouse model assessed as reduction in tumor volume by measuring treatment to control ratio at 10 mg/kg, po co-administered with imatinib once daily and measured after 33 days relative to control; assay type: functional; conditions: time 33 day
K-562R [28] = assay: Antitumor activity against human K562-r cells xenografted in female NOD/SCID mouse model assessed as tumor growth inhibition at 10 mg/kg, po co-administered with imatinib once daily for 30 days; assay type: functional, organism-based; conditions: time 30.0 day
MCF7 [29] = assay: Effect on STAT5 protein expression in human MCF7 cells at 10 uM incubated for 72 hrs by Western blotting based immunoassay; assay type: functional, cell-based
[30] = test system: Paclitaxel-resistant A2780; assay: Inhibition of STAT5 phosphorylation in human Paclitaxel-resistant A2780 cells expressing ABCB1 at 10 uM incubated for 72 hrs by Western blotting based immunoassay; assay type: cell-based
[31] = test system: Paclitaxel-resistant IGROV-1 cell; assay: Inhibition of side population phenotype in human Paclitaxel-resistant IGROV-1 cells expressing ABCB1 at 10 uM incubated for 90 mins by DCV staining based flow cytometric analysis; assay type: functional
[32] = test system: Docetaxel-resistant DU145 cell; assay: Inhibition of side population phenotype in human Docetaxel-resistant DU145 cell expressing ABCB1 at 10 uM incubated for 90 mins by DCV staining based flow cytometric analysis; assay type: functional
K-562R [33] = assay: as §1; assay type: functional
K-562R [34] = assay: Enhancement of imatinib-induced anti-metabolic activity in human K562-r cells at 0.5 to 8 uM measured after 72 hrs by MTT assay relative to control; assay type: functional; conditions: dose 0.5-8 µM
[35] = Intrinsic clearance in rat hepatocytes measured per 10^6 cells; assay type: ADME, cell-based, Hepatocyte; conditions: read-out: CLH
[36] = test system: Paclitaxel-resistant IGROV-1 cell; assay: Downregulation of STAT5 protein expression in human Paclitaxel-resistant IGROV-1 cells expressing ABCB1 at 10 uM incubated for 72 hrs by Western blotting based immunoassay; assay type: functional
[37] = Permeability of compound; assay type: ADME; conditions: not told; read-out: permeability
K-562R [38] = assay: Sensitization of imatinib-induced cytotoxicity against human K562-r cells assessed as cell viability at 10 uM measured after 72 hrs by MTT assay relative to control; assay type: functional; conditions: read-out: Activity
K-562R [39] = assay: Sensitization of imatinib-induced cytotoxicity against human K562-r cells assessed as reduction in metabolic activity at 0.5 to 10 uM measured after 72 hrs by MTT assay; assay type: functional, cell-based; conditions: dose 0.5-10 µM
[40] = Aqueous solubility of compound measured after 48 hrs by HPLC analysis; assay type: physicochemical; conditions: buffer
[41] = test system: Paclitaxel-resistant IGROV-1 cell; assay: Enhancement of paclitaxel-induced anti-metabolic activity in human Paclitaxel-resistant IGROV-1 cells assessed as reduction in metabolic activity upto 300 nM measured after 72 hrs by MTT assay; assay type: functional, cell-based
K-562R [42] = assay: Antitumor activity against human K562-r cells xenografted in female NOD/SCID mouse model assessed as tumor growth inhibition at 50 mg/kg, po administered once daily for 30 days; assay type: functional, organism-based; conditions: time 30.0 day
[43] = Toxicity in female NOD/SCID mouse xenografted with human K562-r cells assessed as body weight loss at 50 mg/kg, po administered once daily for 30 days; assay type: organism-based; conditions: in vivo, 720 h, time 30 day

Row | SMILES | inhibition (MCF7 [1]) | inhibition (A2780/Taxol [2]) | Activity [3] | inhibition (A549 [5]) | inhibition (K562-r [7]) | inhibition (K562-r [8]) | inhibition [9] | Activity (A549 [11]) | Activity (K-562R [14]) | Activity [15] | Activity (K-562R [16]) | Activity (PBMC [17]) | Activity (A2780/Taxol [18]) | inhibition (A549 [19]) | Activity (K562-r [20]) | Activity (A2780/Taxol [22]) | inhibition (MCF7 [23]) | Activity (PBMC [24]) | Activity (COS-7) | inhibition (PBMC [26]) | also measured
1 | CCCc1nc2c(C)cc(-c3nc4ccccc4n3C)cc2n1Cc1ccc(-c2ccccc2C(N)=O)cc1 | Active | Active | Active | Active | Active; Lesser Effect Observed | Active | Active | inactive | inactive | Active | inactive | inactive | inactive | Active | inactive | Active | Active | inactive | Non-toxic | Active | inhibition at 10 µM [4]: 100%; Activity [6]: Non-toxic; Activity (K-562R [10]): Active; Activity (K-562R [12]): Active; Activity [13]: Non-toxic; inhibition [21]: Active; Activity (K-562R [25]): Active; T/C (K-562R [27]): 36%; Activity (K-562R [28]): Active; Strongest Inhibition Observed; Activity (MCF7 [29]): inactive; inhibition [30]: Active; inhibition [31]: Active; inhibition [32]: Active
2 | CCCc1nc2c(C)cc(-c3nc4ccccc4n3C)cc2n1Cc1ccc(-c2ccccc2C(=O)O)cc1 | Active | Active; Modest Effect Observed | inactive | Active | Active; Lesser Effect Observed | Active | Active | inactive | inactive | Active; Marginal Activity Observed | inactive | inactive | inactive | Active | inactive | Active | Active | inactive | Non-toxic | inactive | inhibition (K-562R [33]): inactive; Activity (K-562R [34]): <50%; hepatocyte CLint [35]: 23 µL/min/1e6 cells; Activity [36]: Active; Papp [37]: 29 ×10⁻⁶ cm/s; viability at 10 µM (K-562R [38]): 34%; Activity (MCF7 [29]): inactive; Activity (K-562R [39]): Active; Marginal Enhancement Of Imatinib Activity Observed; solubility at 48 h [40]: 19.2 µM (≈ 9.88 µg/mL); inhibition [30]: Active; Activity [41]: Active; inhibition [31]: Active; Modest Effect Observed; inhibition [32]: Active; Modest Effect Observed
3 | Cc1ccc(NC(=O)c2ccc(CN3CCN(C)CC3)cc2)cc1Nc1nccc(-c2cccnc2)n1 [IMATINIB] | – | – | – | – | – | – | – | – | – | – | – | – | – | – | – | – | – | – | – | – | Activity (K-562R [42]): Active; Activity [43]: Non-toxic
